Source: patent US9694016B2 (Novartis AG, priority 2013, dated 2017)

molecular target: b-Raf (V600E) (Homo sapiens (Human), UniProt P15056, V600E); settings: read-out: b-Raf IC-50
Sequence (P15056 whole entry V600E): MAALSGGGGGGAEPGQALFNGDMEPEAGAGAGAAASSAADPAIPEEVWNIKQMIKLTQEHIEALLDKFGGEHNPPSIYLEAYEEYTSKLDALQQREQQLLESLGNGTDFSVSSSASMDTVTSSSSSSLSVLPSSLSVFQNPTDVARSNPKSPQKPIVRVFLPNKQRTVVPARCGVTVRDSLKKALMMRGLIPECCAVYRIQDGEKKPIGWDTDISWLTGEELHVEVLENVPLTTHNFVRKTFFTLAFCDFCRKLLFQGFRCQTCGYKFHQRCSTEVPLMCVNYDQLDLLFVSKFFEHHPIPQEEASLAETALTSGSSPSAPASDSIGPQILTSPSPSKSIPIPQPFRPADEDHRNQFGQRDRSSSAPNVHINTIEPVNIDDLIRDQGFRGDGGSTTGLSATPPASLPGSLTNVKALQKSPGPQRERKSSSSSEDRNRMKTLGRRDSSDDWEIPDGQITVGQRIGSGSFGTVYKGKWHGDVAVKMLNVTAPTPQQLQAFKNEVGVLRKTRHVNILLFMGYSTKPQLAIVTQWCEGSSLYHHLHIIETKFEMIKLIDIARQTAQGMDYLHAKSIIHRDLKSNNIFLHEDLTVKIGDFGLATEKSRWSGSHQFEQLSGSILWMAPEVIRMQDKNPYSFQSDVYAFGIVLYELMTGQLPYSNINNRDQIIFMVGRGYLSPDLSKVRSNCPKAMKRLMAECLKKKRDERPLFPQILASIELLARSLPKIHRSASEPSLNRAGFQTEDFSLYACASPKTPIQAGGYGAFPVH

`CCOc1nnc(-c2cc(NC(=O)c3ccc(CNC)c(C(F)(F)F)c3)ccc2C)cc1N1CCOCC1` [Example 574, N-(3-(6-ethoxy-5-morpholinopyridazin-3-yl)-4-methylphenyl)-4-((methylamino)methyl)-3-(trifluoromethyl)benzamide] was tested, and the IC50 was 2.2 nM.

same assay, conditions: read-out: b-Raf IC-50; AlphaScreen, 60 min pre-incubation, 3 hours reaction

Compared with `COc1ncc(-c2cc(NC(=O)c3ccnc(S(C)(=O)=O)c3)ccc2C)nc1N1CCOCC1` [Example 546, N-(3-(5-methoxy-6-morpholinopyrazin-2-yl)-4-methylphenyl)-2-(methylsulfonyl)isonicotinamide], `COc1nnc(-c2cc(NC(=O)c3cccc(S(C)(=O)=O)c3)ccc2C)cc1N1CCOCC1` [Example 553, N-(3-(6-methoxy-5-morpholinopyridazin-3-yl)-4-methylphenyl)-3-(methylsulfonyl)benzamide] is 4.2-fold lower in IC50: 5 nM for the first, 1.2 nM for the second. The second is the more potent here.

`COc1nnc(-c2cc(NC(=O)c3ccnc(C(F)(F)F)c3)ccc2C)cc1N1CCOCC1` [Example 547, N-(3-(6-methoxy-5-morpholinopyridazin-3-yl)-4-methylphenyl)-2-(trifluoromethyl)isonicotinamide] and `COc1nnc(-c2cc(NC(=O)c3ccnc(C(C)(F)F)c3)ccc2C)cc1N1CCOCC1` [Example 548, 2-(1,1-difluoroethyl)-N-(3-(6-methoxy-5-morpholinopyridazin-3-yl)-4-methylphenyl)isonicotinamide] are within 1.5-fold of each other in IC50: 1 nM for the first, 1.1 nM for the second.

Compared with `CCC(F)(F)c1cc(C(=O)Nc2ccc(C)c(-c3cc(N4CCOCC4)c(OC)nn3)c2)ccn1` [Example 549, 2-(1,1-difluoropropyl)-N-(3-(6-methoxy-5-morpholinopyridazin-3-yl)-4-methylphenyl)isonicotinamide], `CCOc1nnc(-c2cc(NC(=O)c3ccnc(C(F)(F)CC)c3)ccc2C)cc1N1CCOCC1` [Example 560, 2-(1,1-difluoropropyl)-N-(3-(6-ethoxy-5-morpholinopyridazin-3-yl)-4-methylphenyl)isonicotinamide] is 2.1-fold lower in IC50: 2.1 nM for the first, 1 nM for the second.

Compared with `COc1nnc(-c2cc(NC(=O)c3ccnc(C4CC4)c3)ccc2C)cc1N1CCOCC1` [Example 550, 2-cyclopropyl-N-(3-(6-methoxy-5-morpholinopyridazin-3-yl)-4-methylphenyl)isonicotinamide], `CCOc1nnc(-c2cc(NC(=O)c3ccnc(C4CC4)c3)ccc2C)cc1N1CCOCC1` [Example 563, 2-cyclopropyl-N-(3-(6-ethoxy-5-morpholinopyridazin-3-yl)-4-methylphenyl)isonicotinamide] is 2-fold lower in IC50: 1.2 nM for the first, 0.6 nM for the second. The second is the more potent here.

`COc1nnc(-c2cc(NC(=O)c3cnnc(C(F)(F)F)c3)ccc2C)cc1N1CCOCC1` [Example 551, N-(3-(6-methoxy-5-morpholinopyridazin-3-yl)-4-methylphenyl)-6-(trifluoromethyl)pyridazine-4-carboxamide] and `CCOc1nnc(-c2cc(NC(=O)c3cnnc(C(F)(F)F)c3)ccc2C)cc1N1CCOCC1` [Example 570, N-(3-(6-ethoxy-5-morpholinopyridazin-3-yl)-4-methylphenyl)-6-(trifluoromethyl)pyridazine-4-carboxamide] are within 1.5-fold of each other in IC50: 1.2 nM for the first, 0.8 nM for the second.

`COc1nnc(-c2cc(NC(=O)c3ccnc(C(C)(C)F)c3)ccc2C)cc1N1CCOCC1` [Example 552, 2-(2-fluoropropan-2-yl)-N-(3-(6-methoxy-5-morpholinopyridazin-3-yl)-4-methylphenyl)isonicotinamide] and `COc1nnc(-c2cc(NC(=O)c3ccnc(C(C)(C)O)c3)ccc2C)cc1N1CCOCC1` [Example 556, 2-(2-hydroxypropan-2-yl)-N-(3-(6-methoxy-5-morpholinopyridazin-3-yl)-4-methylphenyl)isonicotinamide] are within 1.5-fold of each other in IC50: 3 nM for the first, 3.9 nM for the second.

Compared with `COc1nnc(-c2cc(NC(=O)c3cnnc(C(C)(C)C#N)c3)ccc2C)cc1N1CCOCC1` [Example 557, 6-(2-cyanopropan-2-yl)-N-(3-(6-methoxy-5-morpholinopyridazin-3-yl)-4-methylphenyl)pyridazine-4-carboxamide], `CCOc1nnc(-c2cc(NC(=O)c3cnnc(C(C)(C)C#N)c3)ccc2C)cc1N1CCOCC1` [Example 567, 6-(2-cyanopropan-2-yl)-N-(3-(6-ethoxy-5-morpholinopyridazin-3-yl)-4-methylphenyl)pyridazine-4-carboxamide] is 2.7-fold lower in IC50: 5.4 nM for the first, 2 nM for the second. The second is the more potent here.

First: COc1nnc(-c2cc(NC(=O)c3ccnc(C(C)(C)C#N)c3)ccc2C)cc1N1CCOCC1 [Example 558, 2-(2-cyanopropan-2-yl)-N-(3-(6-methoxy-5-morpholinopyridazin-3-yl)-4-methylphenyl)isonicotinamide]
Second: CCOc1nnc(-c2cc(NC(=O)c3ccnc(C(C)(C)C#N)c3)ccc2C)cc1N1CCOCC1 [Example 573, 2-(2-cyanopropan-2-yl)-N-(3-(6-ethoxy-5-morpholinopyridazin-3-yl)-4-methylphenyl)isonicotinamide]
The IC50 of the first is 2.6-fold higher: 2.1 nM for the first, 0.8 nM for the second.

Compared with `CCOc1nnc(-c2cc(NC(=O)c3cccc(C(F)F)c3)ccc2C)cc1N1CCOCC1` [Example 561, 3-(difluoromethyl)-N-(3-(6-ethoxy-5-morpholinopyridazin-3-yl)-4-methylphenyl)benzamide], `CCOc1nnc(-c2cc(NC(=O)c3ccnc(C(F)F)c3)ccc2C)cc1N1CCOCC1` [Example 562, 2-(difluoromethyl)-N-(3-(6-ethoxy-5-morpholinopyridazin-3-yl)-4-methylphenyl)isonicotinamide] is 2-fold higher in IC50: 0.3 nM for the first, 0.6 nM for the second.

`CCOc1nnc(-c2cc(NC(=O)c3ccnc(C(C)(C)F)c3)ccc2C)cc1N1CCOCC1` [Example 564, N-(3-(6-ethoxy-5-morpholinopyridazin-3-yl)-4-methylphenyl)-2-(2-fluoropropan-2-yl)isonicotinamide] and `CCOc1nnc(-c2cc(NC(=O)c3ccnc(C(C)(F)F)c3)ccc2C)cc1N1CCOCC1` [Example 565, 2-(1,1-difluoroethyl)-N-(3-(6-ethoxy-5-morpholinopyridazin-3-yl)-4-methylphenyl)isonicotinamide] are the same in IC50: 1.3 nM for the first, 1.3 nM for the second.

Going from `CCOc1nnc(-c2cc(NC(=O)c3ccnc(C4(C#N)CC4)c3)ccc2C)cc1N1CCOCC1` [Example 568, 2-(1-cyanocyclopropyl)-N-(3-(6-ethoxy-5-morpholinopyridazin-3-yl)-4-methylphenyl)isonicotinamide] to `CCOc1nnc(-c2cc(NC(=O)c3ccnc(C(C)(C)O)c3)ccc2C)cc1N1CCOCC1` [Example 569, N-(3-(6-ethoxy-5-morpholinopyridazin-3-yl)-4-methylphenyl)-2-(2-hydroxypropan-2-yl)isonicotinamide], the IC50 rises from 0.7 nM to 2.8 nM (4-fold).

Compared with `CCOc1nnc(-c2cc(NC(=O)c3cccc(C(F)(F)F)c3)cnc2C)cc1N1CCOC[C@@H]1C` [Example 571, (S)—N-(5-(6-ethoxy-5-(3-methylmorpholino)pyridazin-3-yl)-6-methylpyridin-3-yl)-3-(trifluoromethyl)benzamide], `CCOc1nnc(-c2cc(NC(=O)c3ccnc(C(C)(C)C#N)c3)ccc2C)cc1N1CCOC[C@@H]1C` [Example 572, (S)-2-(2-cyanopropan-2-yl)-N-(3-(6-ethoxy-5-(3-methylmorpholino)pyridazin-3-yl)-4-methylphenyl)isonicotinamide] is 1.5-fold higher in IC50: 2.5 nM for the first, 3.8 nM for the second.

In the case of `CCNCc1ccc(C(=O)Nc2ccc(C)c(-c3cc(N4CCOCC4)c(OCC)nn3)c2)cc1C(F)(F)F` [Example 575, N-(3-(6-ethoxy-5-morpholinopyridazin-3-yl)-4-methylphenyl)-4-((ethylamino)methyl)-3-(trifluoromethyl)benzamide], the IC50 is reported as 2.9 nM.
